Consider 4 molecules from PMC5626944 (Frontiers in Pharmacology, 2017).

In series [1] the test system is WT and α6L9′S mice. The series can be described thus: Locomotor assay in a novel environment. It is filed as in vivo, mouse. As to conditions: for Ambulatory activity in a novel environment: 0.5 μmol/kg ip (nicotine 0.08 mg/kg, TC299423 0.09 mg/kg). As for the experimental part:
Mice were habituated to the experimental room for 2 h prior to the experiment. Horizontal locomotor activity was recorded using an infrared photobeam activity cage system (San Diego Instruments; San Diego, CA, United States). After habituating to the experimental room, mice were placed singly in a novel cage. Ambulations were recorded when two contiguous photobeams were broken in succession, preventing activity from being recorded by most sedentary animals. Ambulation events were measured for 45 min with four 15 s intervals per min. Mice were given a total of two intraperitoneal (ip) injections. First, mice were pre-injected with saline or 1 mg/kg mecamylamine before being placed in the activity cages.

The target of series [2] is α6β2* nAChRs (Mus musculus, UniProt Q9ERK7+Q9R0W9). The series can be described thus: biochemical. It is filed as biochemical. Particulars: 10 μM. The protocol: Regions of interest were dissected from fresh mouse brains and homogenized in ice-cold isotonic sucrose (0.32 M), buffered with HEPES (5 mM, pH 7.5). The suspension was centrifuged at 12,000 × g for 20 min. The pellet was re-suspended in the appropriate uptake buffer ([Grady et al., 2001]; [Salminen et al., 2004]; [Marks et al., 2006]) and used immediately.
Chain of α6β2* nAChRs (Q9R0W9 31-494): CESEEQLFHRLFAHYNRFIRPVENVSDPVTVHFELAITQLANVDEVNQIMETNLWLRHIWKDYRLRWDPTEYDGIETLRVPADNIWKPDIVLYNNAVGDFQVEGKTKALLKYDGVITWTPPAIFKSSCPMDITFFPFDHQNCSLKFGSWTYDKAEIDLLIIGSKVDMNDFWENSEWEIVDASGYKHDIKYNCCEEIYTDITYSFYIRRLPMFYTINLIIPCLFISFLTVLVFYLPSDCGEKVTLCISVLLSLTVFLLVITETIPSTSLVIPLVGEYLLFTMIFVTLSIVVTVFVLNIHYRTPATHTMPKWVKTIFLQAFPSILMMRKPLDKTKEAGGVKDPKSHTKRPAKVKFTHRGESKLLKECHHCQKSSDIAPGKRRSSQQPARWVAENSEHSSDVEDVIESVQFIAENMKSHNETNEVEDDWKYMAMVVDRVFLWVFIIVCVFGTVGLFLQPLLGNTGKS
Chain of α6β2* nAChRs (Q9ERK7 26-501): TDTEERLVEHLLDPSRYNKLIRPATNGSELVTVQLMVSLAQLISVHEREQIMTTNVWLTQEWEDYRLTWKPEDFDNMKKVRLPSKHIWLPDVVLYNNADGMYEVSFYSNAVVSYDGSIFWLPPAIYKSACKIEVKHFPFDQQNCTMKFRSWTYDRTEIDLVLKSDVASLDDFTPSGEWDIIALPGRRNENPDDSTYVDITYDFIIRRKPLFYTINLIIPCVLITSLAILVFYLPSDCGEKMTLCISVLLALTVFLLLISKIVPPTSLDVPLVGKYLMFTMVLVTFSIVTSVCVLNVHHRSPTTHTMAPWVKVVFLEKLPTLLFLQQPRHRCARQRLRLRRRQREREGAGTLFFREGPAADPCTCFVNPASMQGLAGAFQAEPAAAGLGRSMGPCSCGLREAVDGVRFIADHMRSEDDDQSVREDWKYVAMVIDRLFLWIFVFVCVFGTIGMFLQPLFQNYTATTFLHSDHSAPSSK
Chain of α6β2* nAChRs (Q8BMN3 31-464 partner): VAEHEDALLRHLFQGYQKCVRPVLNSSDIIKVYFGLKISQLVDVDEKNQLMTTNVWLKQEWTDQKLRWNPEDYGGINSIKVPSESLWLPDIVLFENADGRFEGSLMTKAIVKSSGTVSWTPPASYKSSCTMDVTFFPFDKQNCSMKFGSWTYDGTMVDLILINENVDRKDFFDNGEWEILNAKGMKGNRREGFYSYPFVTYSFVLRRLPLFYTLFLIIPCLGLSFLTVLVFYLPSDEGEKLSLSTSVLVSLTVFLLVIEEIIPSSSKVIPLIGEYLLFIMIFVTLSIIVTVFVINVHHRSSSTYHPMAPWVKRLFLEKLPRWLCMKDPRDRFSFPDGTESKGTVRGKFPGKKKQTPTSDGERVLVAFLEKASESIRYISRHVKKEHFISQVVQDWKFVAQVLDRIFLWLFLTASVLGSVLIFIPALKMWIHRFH
Superfusion was carried out at 22°C using a buffer containing: NaCl, 128 mM; KCl, 2.4 mM; CaCl2, 3.2 mM; MgSO4, 1.2 mM; KH2PO4, 1.2 mM; HEPES, 25 mM; glucose, 10 mM; ascorbic acid, 1 mM; pargyline, 0.01 mM; 0.1% BSA; nomifensine, 1 μM (to prevent the re-uptake of dopamine); atropine, 1 μM (to prevent muscarinic receptor activation); pH 7.5. Superfusion proceeded at 0.7 mL/min for 10 min before stimulation with agonist for 20 s. Selected aliquots were perfused with α-CtxMII (50 nM) for 3 min immediately before stimulation. This concentration of α-CtxMII was sufficient to inhibit α6β2^∗-nAChRs in the mouse striatum ([Salminen et al., 2004], [2007]). Fractions (∼0.1 mL) were collected into 96-well plates at 10 s intervals for 4 min (starting ∼1 min before stimulation). After adding 0.15 mL of Optiphase SuperMix scintillation cocktail, radioactivity was measured using a 1450 MicroBeta TriLux counter (Perkin Elmer Life Sciences).

Series [3] has as its target α4β2* nAChRs (Mus musculus, UniProt O70174+Q9ERK7). The series can be described thus: biochemical. The series is classed as biochemical. As to conditions: 10 μM. The protocol:
Regions of interest were dissected from fresh mouse brains and homogenized in ice-cold isotonic sucrose (0.32 M), buffered with HEPES (5 mM, pH 7.5). The suspension was centrifuged at 12,000 × g for 20 min.
Superfusion proceeded at 0.7 mL/min for 10 min before stimulation with agonist for 20 s. Selected aliquots were perfused with α-CtxMII (50 nM) for 3 min immediately before stimulation. […] Fractions (∼0.1 mL) were collected into 96-well plates at 10 s intervals for 4 min (starting ∼1 min before stimulation).

For series [4], the system named is WT mice. Nature of the series: Hot plate assay. It is filed as in vivo, mouse. As to conditions: 0.3 mg/kg ip each, 55°C hot plate, p < 0.05. The protocol:
Mice were again habituated to the experimental room for ≥2 h prior to testing. […] This apparatus is a heated metal plate, maintained at 55°C, enclosed by a clear acrylic plastic cylinder (∼10 cm in diameter), within which the mouse is free to move. […] If the mouse urinates during the assay, it is immediately removed from the hot plate. The time that the mouse remains on the hot plate prior to showing signs of discomfort is recorded. Doses were administered using a Latin-square crossover design. A day without testing occurred between each test.

In series [5] the test system is WT mice. The series can be described thus: Marble burying assay. It is filed as in vivo, mouse. As to conditions: 0.3 mg/kg ip.
Series [6] relates to α3β4 nAChRs. Also noted: method as in Carroll et al., 2015. As to conditions: ref Carroll et al., 2015; cited from earlier work.
For series [7], the system named is α7 nAChRs. Also noted: method as in Carroll et al., 2015. As to conditions: ref Carroll et al., 2015; cited from earlier work.
Series [8] in a line: In vitro metabolism in microsomes. It is filed as in vitro ADME. As to conditions: human microsomes.
A short description of series [9]: In vitro metabolism in microsomes. As to conditions: rat microsomes. It is filed as in vitro ADME.
For series [10], the system named is CYP2D6. The series can be described thus: Turnover by recombinantly expressed human cytochrome P450 isoforms. It is filed as in vitro ADME. As to conditions: 100 pmol/mL enzyme, 37 °C. As for the experimental part: (§1) S2 Table. In vitro metabolism of TC299423, compared w ith varenicline.
(§2) Human Rat microsomes Turnover by human cytochrome P450 isoforms […]
(§3) The assay mixtures (final incubation volume of 125 μL) in 0.255 M phosphate buffer with 0.575% (w/v) KCl (pH 7.4) contained PiB (1.0 μM), […] a recombinantly expressed cytochrome P450 enzyme preparation (1A2, 2C9, 2C19, 2D6, 3A4, and FMO3) at 100 pmol/mL. After a 10 min preincubation at 37 °C, the reaction was initiated by addition of 2.0 mM NADPH and incubated for 60 min. The reactions were terminated by the addition of two volumes of DMSO. Samples were subsequently centrifuged at 4,000 rpm for 10 min. From the resulting supernatant, 10 μ L was analyzed by liquid chromatography/tandem mass spectrometry (LC-MS/MS). Control experiments were performed by substituting the active enzyme preparation by cell preparations containing no recombinant human CYP. a, Data for clearance are given as μL /min/mg protein. […]
(§4) c, Data for cytochrome P450 turnover and for human flavin- containing monooxygenase 3 (FMO3) are given as percent decline over 60 min.

The subject of series [11] is CYP2C19. The series is described as above. The series is classed as in vitro ADME. As to conditions: 100 pmol/mL enzyme, 37 °C. As for the experimental part: as §1, §2, §3, §4
The test system of series [12] is CYP3A4. The series is described as above. It is filed as in vitro ADME. Particulars: 100 pmol/mL enzyme, 37 °C. The protocol:
as §1, §2, §3, §4

In series [13] the test system is CYP1A2. Described as above. It is filed as in vitro ADME. Particulars: 100 pmol/mL enzyme, 37 °C. As for the experimental part: as §1, §2, §3, §4
The test system of series [14] is CYP2C9. The description is as above. As to conditions: 100 pmol/mL enzyme, 37 °C. It is filed as in vitro ADME. The protocol:
as §1, §2, §3, §4

Where a name gives a salt, the structure may show the parent alone. Read-outs that look alike come from different tables or passages of the source.

Chain of α4β2* nAChRs (O70174 31-629): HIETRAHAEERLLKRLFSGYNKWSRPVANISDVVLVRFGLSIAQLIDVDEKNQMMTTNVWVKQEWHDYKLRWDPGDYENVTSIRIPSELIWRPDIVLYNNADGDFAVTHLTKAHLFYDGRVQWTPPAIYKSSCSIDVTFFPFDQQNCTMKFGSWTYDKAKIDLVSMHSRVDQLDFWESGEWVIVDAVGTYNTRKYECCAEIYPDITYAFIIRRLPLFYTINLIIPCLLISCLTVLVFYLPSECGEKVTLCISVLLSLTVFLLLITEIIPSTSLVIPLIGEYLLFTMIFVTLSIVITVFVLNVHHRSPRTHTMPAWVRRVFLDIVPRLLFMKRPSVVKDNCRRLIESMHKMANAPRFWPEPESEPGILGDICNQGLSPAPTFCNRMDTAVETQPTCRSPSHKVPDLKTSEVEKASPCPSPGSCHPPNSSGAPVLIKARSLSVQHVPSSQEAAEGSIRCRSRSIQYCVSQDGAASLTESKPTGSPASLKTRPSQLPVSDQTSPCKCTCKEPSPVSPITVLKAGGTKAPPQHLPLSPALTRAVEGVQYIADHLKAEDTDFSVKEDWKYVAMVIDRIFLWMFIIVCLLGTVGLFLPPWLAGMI
Chain of α4β2* nAChRs (Q9ERK7 26-501): as the sequence (Q9ERK7 26-501) above

Consider `CNC1(C)C2CCC(C2)C1(C)C` (centres unmarked) [mecamylamine], for which the “Effect of pre-injection on nicotine- and TC299423-induced increases in ambulation” value in series [1] (α6L9′S mice, 1 mg/kg ip pre-injection) is on record as “blocked”.
For `CN1CCC[C@H]1c1cccnc1` [nicotine, (L)-nicotine hydrogen tartrate], in series [2], the “α-CtxMII-sensitive [3H]-dopamine release elicited” value was found to be 3.63 ± 0.81 units. Besides, the results for the “Ambulatory activity in a novel environment” value in series [1] (WT mice) and in [1] (α6L9′S mice) were “Neither TC299423 nor nicotine affected WT ambulation” and “dramatically increased the ambulatory activity”, respectively. Moreover, the “α-CtxMII-resistant [3H]-dopamine release elicited” value in series [3] was determined as 7.78 ± 0.83 units. Moreover, in [4], the “Antinociceptive effect compared with varenicline” value is “significantly greater than that of varenicline”. Also, the “Marbles buried compared with saline” value in [5] is reported as “significantly fewer marbles”. The “Marbles buried compared with varenicline” value in series [5] (p < 0.001) is reported as “fewer marbles”.
In the case of `c1cc2c(cn1)[C@@H]1CC[C@H](CCC2)N1` [PHT, (+)-pyrido[3,4]homotropane], the results for the EC50 in series [6] and in [7] were 0.43 µM and 0.66 µM, respectively.
For `c1cnc2cc3c(cc2n1)[C@@H]1CNC[C@H]3C1` [varenicline, Varenicline tartrate, reference compound], the half-life in [8] was determined as 43 min; in series [9], 10 min. For the same molecule, the microsomal CLint in series [8] (read-out: Clearance) came out at 39 µL/min/mg; in series [9] (read-out: Clearance) it was 233 µL/min/mg. For the same molecule, the “Turnover by CYP2D6” value in series [10] is recorded as 39 percent decline over 60 min. Further, the “Turnover by CYP2C19” value in [11] is reported as 0 percent decline over 60 min. Further, the “Turnover by CYP3A4” value in [12] is reported as 50 percent decline over 60 min. Also, the “Turnover by CYP1A2” value in series [13] was 7 percent decline over 60 min. Also, the “Turnover by CYP2C9” value in series [14] is listed as 0 percent decline over 60 min. Moreover, the “Marbles buried compared with saline” value in [5] is “significantly fewer marbles”.
